# Laboratory results as given in ChEMBL document CHEMBL1128616, “A pair of new apotirucallane triterpenes, meliavolkensins A and B, from Melia volkensii (Meliaceae)” (1995).
# How the values were obtained:
# Format in all cases: functional
# A549 = assay: Compound was tested for its cytotoxic activity in MTT assay against A-549 cell line (human lung carcinoma); conditions: read-out: ED50 (the source's name)
# HT-29 = assay: Compound was tested for its cytotoxic activity in MTT assay against HT-29 cell line (human colon adenocarcinoma); conditions: read-out: ED50 (the source's name)
# MCF9 = assay: Compound was tested for its cytotoxic activity in MTT assay against MCF-9 cell line (human breast carcinoma); conditions: read-out: ED50 (the source's name)
# Artemia = assay: Compound was tested for its cytotoxic activity by brine shrimp lethality test
compound,measurement,setting,value
COc1cccc2c1C(=O)c1c(O)c3c(c(O)c1C2=O)C[C@@](O)(C(=O)CO)C[C@@H]3O[C@H]1C[C@H](N)[C@H](O)[C@H](C)O1 [DOXORUBICIN],EC50,A549,0.00844 µg/mL
same,EC50,HT-29,0.0261 µg/mL
same,EC50,MCF9,0.0673 µg/mL
CO[C@]1(C(C)(C)O)CC[C@@H]([C@@H]2CC=C3[C@@]4(C)C(CC[C@]32C)[C@]2(C)C(C[C@H]4OC(C)=O)C(C)(C)C(OC(=O)c3ccccc3)C[C@@H]2OC(C)=O)CO1 (stereo partly specified),EC50,A549,13.3 µg/mL
same,LC50,Artemia,107 µg/mL
same,EC50,HT-29,0.49 µg/mL
same,EC50,MCF9,3.06 µg/mL
CO[C@@]1(C(C)(C)O)CC[C@@H]([C@@H]2CC=C3[C@@]4(C)C(CC[C@]32C)[C@]2(C)C(C[C@H]4OC(C)=O)C(C)(C)C(OC(=O)c3ccccc3)C[C@@H]2OC(C)=O)CO1 (stereo partly specified),EC50,A549,10.6 µg/mL
same,LC50,Artemia,89.3 µg/mL
same,EC50,HT-29,0.25 µg/mL
same,EC50,MCF9,2.02 µg/mL
